Positions count from the first letter of the chain named. Where “and” joins values, the source holds several entries; their conditions need not be identical. Identical values can stand only once. Like-named read-outs stand apart in the source and are kept apart here.
Assays:
THIK-1 F262A = target: T1, THIK-1 F262A (Homo sapiens, UniProt Q9HB14, F262A); test: Inside-out excised patch recordings, oocytes, THIK-1 F262A mutant (lipid activation); format: cell-based; details: for EC50: Linoleic acid EC50, THIK-1 F262A; for Normalized currents / Fold activation with 30.0 µM linoleic acid: THIK-1 F262A
T1 construct: expressed in transfected cells; host or cells: Xenopus oocytes (mRNA injection)
T1 sequence (Q9HB14 1-408 F262A): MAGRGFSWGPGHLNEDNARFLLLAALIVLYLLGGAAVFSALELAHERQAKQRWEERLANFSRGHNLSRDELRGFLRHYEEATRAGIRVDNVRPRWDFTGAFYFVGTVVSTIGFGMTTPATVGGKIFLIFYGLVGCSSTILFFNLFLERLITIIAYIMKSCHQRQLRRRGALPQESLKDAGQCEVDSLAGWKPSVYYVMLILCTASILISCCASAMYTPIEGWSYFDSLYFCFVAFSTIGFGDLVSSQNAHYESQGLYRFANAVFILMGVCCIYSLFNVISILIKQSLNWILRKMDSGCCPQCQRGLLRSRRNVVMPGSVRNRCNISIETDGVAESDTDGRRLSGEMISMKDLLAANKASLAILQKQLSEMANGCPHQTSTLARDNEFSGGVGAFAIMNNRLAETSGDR
From the text: (§1) Human K2P13.1 THIK-1 (GenBank accession number: NM_022054) and human K2P12.1 THIK-2 (NM_022055.1) were used in this study. For functional expression studies, the respective K^+ channel subtype coding sequences were subcloned into the oocyte expression vector pSGEM or the dual-purpose expression vector pFAW[41] and verified by sequencing. All mutant channels were obtained by site-directed mutagenesis and verified by sequencing. To increase surface expression and macroscopic currents, measurements of THIK-2 channels used a mutated ER retention motif, (R11A R12A R14A R15A R16A; THIK-2*)[20]. Vector DNA was linearized with NheI or MluI, and mRNA was synthesized in vitro using the SP6 or T7 AmpliCap Max High Yield Message Maker Kit (Cellscript, USA) or HiScribe T7 ARCA mRNA Kit (New England Biolabs).
Two-electrode voltage–clamp (TEVC) studies were performed in Xenopus oocytes. All animal use conformed to the Guide for the Care and Use of Laboratory Animals (NIH Publication 85–23), and all experiments using Xenopus toads were approved by the local ethics panels. Oocytes were stored at 17 °C in ND96 recording solution composed of (in mM): 96 NaCl, 2 KCl, 1.8 CaCl2, 1 MgCl2, 5 HEPES (pH 7.5 adjusted with NaOH and HCl), supplemented with Na-pyruvate (275 mg L^–1), theophylline (90 mg L^–1) and gentamicin (50 mg L^–1). Oocytes were injected with 1 ng mRNA for WT or mutant channels, and were incubated for 24–48 h at 17 °C. Two-electrode voltage clamp recordings were then performed as previously described[42],[43]. For macroscopic patch–clamp measurements, oocytes were obtained as described above incubated at 17 °C in a solution containing (mM): 54 NaCl, 30 KCl, 2.4 NaHCO3, 0.82 MgSO4 ×7 H2O, 0.41 CaCl2, 0.33 Ca(NO3)2 ×4 H2O and 7.5 TRIS (pH 7.4 adjusted with NaOH and HCl) for 1–4 days before use. Excised patch recordings in inside-out configuration conditions were performed at room temperature. Patch pipettes were made from thick-walled borosilicate glass GB 200TF-8P (Science Products), had resistances of 0.2–0.5 MΩ (tip diameter, 10–25 µm) and filled with a pipette solution (in mM): 120 KCl, 10 HEPES and 3.6 CaCl2 (pH 7.4 adjusted with KOH and HCl). Intracellular bath solutions and compounds were applied to the cytoplasmic side of excised patches for the various K^+ channels through a gravity flow multi-barrel pipette system. The intracellular solution had the following composition (in mM): 120 KCl, 10 HEPES, 2 EGTA and 1 pyrophosphate (pH adjusted with KOH and HCl). Currents were recorded with an EPC10 amplifier (HEKA Electronics) and sampled at 10 kHz or higher, with filtering set to 3 kHz (–3 dB) or higher, as appropriate for sampling rate. For measurements of GPCR activation, whole-cell currents were recorded for THIK-1 in transiently transfected HEK-293 cells. Cells were stimulated by a ramp protocol between −100 and +60 mV (holding potential, −80 mV). The pipette solution was composed of (in mM): 140 KCl, 2 MgCl2, 1 CaCl2, 2.5 EGTA and 10 HEPES (pH 7.3 adjusted with KOH and HCl). The extracellular bath solution had the following composition (in mM): 135 NaCl, 5 KCl, 2 MgCl2, 2 CaCl2, 10 glucose and 10 HEPES pH (pH 7.3 adjusted with NaOH and HCl). Oxotremorine M (Oxo-M) was added to extracellular bath solution to obtain the final concentration. Single-channel currents were recorded with an Axopatch 200B amplifier through a Digidata 1440A digitizer (Molecular Devices). Data were filtered at 2 kHz and recorded at a 200-kHz sampling rate with the program Clampex (Molecular Devices). Pipette solution and bath solution for cell-attached recordings contained (in mM): 140 KCl, 2 MgCl2, 1 CaCl2 and 10 HEPES (pH 7.4 adjusted with KOH and HCl). For inside-out recordings, the bath solution contained (in mM): 140 KCl, 2 MgCl2, 1 CaCl2 and 10 HEPES (pH 7.2 adjusted with KOH and HCl). All experiments were conducted at room temperature. […]

THIK-1 C135A = target: T2, THIK-1 C135A (Homo sapiens, UniProt Q9HB14, C135A); test: Inside-out excised patch recordings, oocytes, THIK-1 C135A mutant; format: cell-based; details: read-out: TPenA IC50
T2 construct: expressed in transfected cells; host or cells: Xenopus oocytes (mRNA injection)
T2 sequence (Q9HB14 1-408 C135A): T1 sequence (Q9HB14 1-408 F262A) with C135A, A262F
From the text: as §1
Two-electrode voltage–clamp (TEVC) studies were performed in Xenopus oocytes. All animal use conformed to the Guide for the Care and Use of Laboratory Animals (NIH Publication 85–23), and all experiments using Xenopus toads were approved by the local ethics panels. Oocytes were stored at 17 °C in ND96 recording solution composed of (in mM): 96 NaCl, 2 KCl, 1.8 CaCl2, 1 MgCl2, 5 HEPES (pH 7.5 adjusted with NaOH and HCl), supplemented with Na-pyruvate (275 mg L^–1), theophylline (90 mg L^–1) and gentamicin (50 mg L^–1). Oocytes were injected with 1 ng mRNA for WT or mutant channels, and were incubated for 24–48 h at 17 °C. Two-electrode voltage clamp recordings were then performed as previously described[42],[43]. […] Currents were recorded with an EPC10 amplifier (HEKA Electronics) and sampled at 10 kHz or higher, with filtering set to 3 kHz (–3 dB) or higher, as appropriate for sampling rate. For measurements of GPCR activation, whole-cell currents were recorded for THIK-1 in transiently transfected HEK-293 cells. […] Single-channel currents were recorded with an Axopatch 200B amplifier through a Digidata 1440A digitizer (Molecular Devices). Data were filtered at 2 kHz and recorded at a 200-kHz sampling rate with the program Clampex (Molecular Devices). […]

EC50 (THIK-1 F262A; individual recordings) | EC50 (THIK-1 F262A; mean) | Normalized currents (THIK-1 F262A; 1 µM linoleic acid) | Normalized currents (THIK-1 F262A; 10 µM linoleic acid) | Normalized currents (THIK-1 F262A; 30 µM linoleic acid) | Normalized currents (THIK-1 F262A; 50 µM linoleic acid) | Normalized currents (THIK-1 F262A; 100 µM linoleic acid) | Normalized currents (THIK-1 F262A; 150 µM linoleic acid) | Normalized currents (THIK-1 F262A; 200 µM linoleic acid) | Fold activation with 30.0 µM linoleic acid (THIK-1 F262A; mean) | Structure (SMILES) | Fold activation with 30.0 µM linoleic acid (THIK-1 F262A; individual recordings) | IC50 (THIK-1 C135A; C135A mutant) | IC50 (THIK-1 C135A; THIK-1 C135A, individual recordings) | IC50 (THIK-1 C135A; THIK-1 C135A, mean)
48.7 µM and 50.7 µM and 292 µM and 208 µM and 91.3 µM and 64.3 µM and 43.4 µM and 58.4 µM | 107 µM | 0.94 | 1.46 | 1.58 | 2.39 | 3.02 | 3.33 | 3.40 | 1.57 | CCCCC/C=C\C/C=C\CCCCCCCC(=O)O [linoleic acid] | 1.770 and 1.480 and 1.860 and 1.430 and 1.420 and 1.440 | – | – | –
– | – | – | – | – | – | – | – | – | – | CCCCC[N+](CCCCC)(CCCCC)CCCCC [TPenA, tetrapentylammonium] | – | 1060 µM | 1250 µM and 1270 µM and 1530 µM and 1180 µM and 748 µM and 1440 µM and 621 µM and 466 µM | 1060 µM

From paper PMC12263422, “Cryo-EM structure of the human THIK-1 K2P K^+ channel reveals a lower Y gate regulated by lipids and anesthetics” (Nature Structural & Molecular Biology, 2025)
